Measurements: patent US10278931B2, “Composition for treatment of inflammatory bowel disease and atopic dermatitis” (INNOPHARMASCREEN INC., priority 2015, dated 2019)

Columns and labels:
[1] = tested on: HMC-1 cells; experiment: Cytotoxicity (MTT-assay) in HMC-1 cells; format: cell-based, human
Method: (1) Cell culture: A human mast cell line (HMC-1) was cultured in an IMDM supplemented with 10% FBS at 37° C. and 5% CO2. Candidate materials were dissolved in DMSO, and then filtered using a 0.22 μm filter. The resulting candidate materials were diluted with DMSO and the HMC-1 cells were treated therewith.
[…] After culturing, the medium was replaced by a fresh medium, 5 mg/ml of an MTT solution was then added thereto, and the mast cells were incubated at 37° C. for 4 hours. 250 DMSO was added to the mast cells, MTT formazan was extracted therefrom, and absorbance of each well was measured at 540 nm using an ELISA reader.

[2] = tested on: balb/c mice with DNCB-induced atopic dermatitis; experiment: DNCB-induced atopic dermatitis model; format: in vivo; details: for epidermal thickness: DNCB group 87.1±13.0, normal 24.5±10.3; for number of mast cells in skin tissue: applied 3 weeks; for blood IgE level: DNCB group 790.0±151.8
Text: (5) Reverse transcription-polymerase chain reaction (RT-PCR) quantitative real time PCR: Total RNA was isolated from cells and tissues, and cDNA was synthesized using a reverse transcriptase and was then reacted with cytokine primers to be analyzed, followed by PCR and real-time PCR. The RT-PCR products were subjected to electrophoresis using 1.5% agarose gel for analysis.
A. Experimental animal: 5-week-old male BALB/c mice obtained from. Daehan Biolink (Eumseong, Chungbuk) were adapted for 2 weeks in a clean animal breeding room (small animal room #2-302) at Hoseo University Safety Evaluation Center, set under environmental conditions: temperature of 22±3° C.; relative humidity of 50±20%; ventilation frequency of 10 to 15 times/hour, illumination for 12 hours; and illuminance of 150 Lux to 300 Lux, and then used in an experiment.
4 experimental animals were accommodated in each of polycarbonate cages (270×500×200 mm, KYERYONG SCIENCE). Feed (5053-Picolab Rodent 20, PMI Nutrition International) and drinking water (ultraviolet sterilized filtered water) were allowed to ingest freely. All procedures of the experiment were conducted after approved by the Ethics Committee of the Hoseo University Safety Evaluation Center (HTRC-15-19).
(§1) B. Dermatitis induction: Hairs on the back of each mouse were removed and maintained for 24 hours, and then 150 μl of a 1% 2,4-dinitrochlorobenzene(DNCB) solution (acetone: olive oil=3:1) was applied on the hair-removed site once a week for 3 weeks. After week 3, the DNCB solution was applied on the site twice a week for 3 weeks to induce atopic dermatitis.
(§2) C. Treatment: Mice were divided into 6 groups, and 0.5% DMSO was applied on animals as a control and 200 μl of each of 0.01 μM, 0.1 μM, and 1 μM test material was applied on animals as experimental groups for 3 weeks. 50 μl of 0.1% dexamethasone dissolved in a crude alcohol was applied on animals as a positive control at intervals of 2 days.
D. Biopsy: After application of the test material was completed, the dorsal skin of each experimental animal was incised under heart anesthesia, some of them were rapidly frozen using liquid nitrogen and stored at −70° C. before analysis, and the remainder was fixed with 10% neutral buffered formalin for 24 hours. The fixed tissues were prepared into slides through general tissue processing, and then subjected to hematoxylin & eosin (H&E) staining to measure the thickness of the epidermal layer. In addition, toluidine blue staining was performed to observe a quantitative change of mast cells. While the stained tissues were observed by an optical microscope, the thickness of the epidermal layer and the number of mast cells were obtained using an image analyzer (Olympus DP-21).
E. IgE level measurement: IgE concentration in blood was measured by (SHIBAYAGI, Japan) using serum collected when autopsy was performed. 50 μL of an IgE standard solution and the sample were placed in antibody-attached 96 wells and allowed to react for 2 hours, and then 50 μL of a biotin-conjugated anti-IgE antibody solution was added to each well and allowed to react for 2 hours. Thereafter, the resulting sample was reacted with a HRP-avidin solution for 1 hour and a chromogenic substrate (TBM) reagent for 20 minutes, and the reaction was stopped using a reaction stopper. Absorbance of the sample was measured at 450 nm using ELISA (Molecular devices Emax).

[3] = molecular target: T1, caspase-1 (Mus musculus, UniProt P29452); experiment: Caspase-1 assay in dorsal skin of DNCB-applied mice; format: in vivo; details: DNCB-applied balb/c mice, concentration-dependent
T1 construct: using the dorsal skin of DNCB-applied balb/c mice; from tissue; host or cells: dorsal skin of BALB/c mice
T1 sequence (P29452 119-402): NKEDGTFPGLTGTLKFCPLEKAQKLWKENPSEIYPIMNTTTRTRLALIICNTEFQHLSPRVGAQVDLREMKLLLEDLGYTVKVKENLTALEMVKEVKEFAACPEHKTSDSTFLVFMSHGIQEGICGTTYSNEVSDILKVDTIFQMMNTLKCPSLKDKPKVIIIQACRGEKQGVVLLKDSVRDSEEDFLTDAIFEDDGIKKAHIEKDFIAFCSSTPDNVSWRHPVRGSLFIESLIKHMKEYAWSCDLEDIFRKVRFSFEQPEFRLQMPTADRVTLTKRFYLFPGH
Method: (4) Caspase-1 assay: Recombinant caspase-1 and a drug were allowed to react, and then activity measurement was performed using a caspase-1 assay kit (R&D Systems Inc., Minneapolis, Minn., USA).
as §1, §2

[4] = molecular target: T2, caspase-1 (Homo sapiens, UniProt P29466); experiment: Caspase-1 assay using HMC-1 cell extracts; format: cell-based
T2 construct: a caspase-1 assay was conducted using cell extracts; endogenous in cells; host or cells: HMC-1 (human mast cells)
T2 sequence (P29466 120-297 limits assumed): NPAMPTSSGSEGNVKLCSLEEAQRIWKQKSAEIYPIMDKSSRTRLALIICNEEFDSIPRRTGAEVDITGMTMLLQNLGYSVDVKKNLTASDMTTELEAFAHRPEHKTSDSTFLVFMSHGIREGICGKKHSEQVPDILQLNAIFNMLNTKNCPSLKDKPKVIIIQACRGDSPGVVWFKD
T2 sequence (P29466 317-404 limits assumed): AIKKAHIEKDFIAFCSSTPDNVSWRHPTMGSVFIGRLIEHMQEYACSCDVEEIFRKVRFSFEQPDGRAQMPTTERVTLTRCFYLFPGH

[5] = DNCB-applied balb/c mice skin tissue, RT-PCR
[6] = DNCB-applied balb/c mice, concentration of 0.011 μM (so in the source)

Cl.N=C(N)NC(=N)Nc1ccc(Cl)cc1 [IPS-07001]
cytotoxicity (MTT-assay) ([1]; 10 μM): exhibited cytotoxicity | cytotoxicity (MTT-assay) ([1]; up to 1 μM): no cytotoxicity | visual changes of skin symptoms ([2]; 0.01 μM, topical, 3 weeks): No significant visual changes | epidermal thickness ([2]; 0.01 μM): 70.8±4.3 μm | number of mast cells in skin tissue ([2]; 0.1 μM, p<0.01): 25.8±3.5 | visual changes of skin symptoms ([2]; 0.1 μM, topical, 3 weeks): No significant visual changes | epidermal thickness ([2]; 0.1 μM): 74.4±7.1 μm | blood IgE level ([2]; 0.1 μM, p<0.05): 632.6±138.8 | number of mast cells in skin tissue ([2]; 1 μM, p<0.01): 23.8±5.1 | erythema, excoriation, and lichenification (visual observation) ([2]; 1 μM, topical, 3 weeks, compared to DNCB group): reduced | epidermal thickness ([2]; 1 μM): 60.0±8.2 μm | blood IgE level ([2]; 1 μM, p<0.01): 537.9±132.9 | IL-6 mRNA expression in atopic skin lesions [2, 5]: regulated | TARC mRNA expression in atopic skin lesions [2, 5]: regulated | TNF-a mRNA expression in atopic skin lesions [2, 5]: regulated | IL-4 level in dorsal skin [2, 6]: significantly regulated | serum IL-4 level [2, 6]: significantly regulated | serum IgE level [2, 6]: significantly regulated | serum histamine level [2, 6]: significantly regulated | caspase-1 activity in dorsal skin [3]: significantly inhibited | caspase-1 activity in HMC-1 cells [4]: significantly inhibited
